Assay results taken from PMC9329436, “Optimization of the 4-anilinoquin(az)oline scaffold as epidermal growth factor receptor (EGFR) inhibitors for chordoma utilizing a toxicology profiling assay platform” (Scientific Reports, 2022).
Like-named read-outs stand apart in the source and are kept apart here.

Assays:
Type in all cases: biochemical
[1] = target: 320 wild-type protein kinases (Homo sapiens, UniProt P50613); conditions: singlicate
Excerpt: (§1) Table S4. Profiling of two compounds at two concentrations against 320 wild-type protein kinases; singlicate measurement; Residual activities (% of control).

[2] = target: T1, 320 wild-type protein kinases (Homo sapiens, UniProt Q8IWQ3); conditions: singlicate
T1 sequence (Q8IWQ3 1-736): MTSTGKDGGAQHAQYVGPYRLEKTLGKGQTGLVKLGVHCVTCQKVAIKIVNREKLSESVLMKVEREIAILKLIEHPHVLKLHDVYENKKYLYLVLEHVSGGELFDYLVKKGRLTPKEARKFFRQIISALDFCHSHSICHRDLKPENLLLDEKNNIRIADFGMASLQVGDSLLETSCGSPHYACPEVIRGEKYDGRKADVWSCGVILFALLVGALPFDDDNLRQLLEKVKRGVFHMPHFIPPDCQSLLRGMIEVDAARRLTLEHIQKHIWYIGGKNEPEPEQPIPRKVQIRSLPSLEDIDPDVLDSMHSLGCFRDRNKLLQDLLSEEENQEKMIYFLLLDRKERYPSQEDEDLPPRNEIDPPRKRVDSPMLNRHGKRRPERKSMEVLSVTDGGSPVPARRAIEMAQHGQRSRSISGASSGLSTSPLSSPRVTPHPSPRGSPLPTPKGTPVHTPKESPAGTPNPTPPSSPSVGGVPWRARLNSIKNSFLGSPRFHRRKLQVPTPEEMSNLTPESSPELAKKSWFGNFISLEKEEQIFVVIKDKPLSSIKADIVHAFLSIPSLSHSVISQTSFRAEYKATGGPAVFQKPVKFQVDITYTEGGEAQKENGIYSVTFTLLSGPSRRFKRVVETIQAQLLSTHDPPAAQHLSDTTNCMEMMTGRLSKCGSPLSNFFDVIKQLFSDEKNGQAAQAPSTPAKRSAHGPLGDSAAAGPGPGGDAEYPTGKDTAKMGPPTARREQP
Excerpt: as §1

[3] = target: T2, 320 wild-type protein kinases (Homo sapiens, UniProt P29322); conditions: singlicate
T2 sequence (P29322 28-1005): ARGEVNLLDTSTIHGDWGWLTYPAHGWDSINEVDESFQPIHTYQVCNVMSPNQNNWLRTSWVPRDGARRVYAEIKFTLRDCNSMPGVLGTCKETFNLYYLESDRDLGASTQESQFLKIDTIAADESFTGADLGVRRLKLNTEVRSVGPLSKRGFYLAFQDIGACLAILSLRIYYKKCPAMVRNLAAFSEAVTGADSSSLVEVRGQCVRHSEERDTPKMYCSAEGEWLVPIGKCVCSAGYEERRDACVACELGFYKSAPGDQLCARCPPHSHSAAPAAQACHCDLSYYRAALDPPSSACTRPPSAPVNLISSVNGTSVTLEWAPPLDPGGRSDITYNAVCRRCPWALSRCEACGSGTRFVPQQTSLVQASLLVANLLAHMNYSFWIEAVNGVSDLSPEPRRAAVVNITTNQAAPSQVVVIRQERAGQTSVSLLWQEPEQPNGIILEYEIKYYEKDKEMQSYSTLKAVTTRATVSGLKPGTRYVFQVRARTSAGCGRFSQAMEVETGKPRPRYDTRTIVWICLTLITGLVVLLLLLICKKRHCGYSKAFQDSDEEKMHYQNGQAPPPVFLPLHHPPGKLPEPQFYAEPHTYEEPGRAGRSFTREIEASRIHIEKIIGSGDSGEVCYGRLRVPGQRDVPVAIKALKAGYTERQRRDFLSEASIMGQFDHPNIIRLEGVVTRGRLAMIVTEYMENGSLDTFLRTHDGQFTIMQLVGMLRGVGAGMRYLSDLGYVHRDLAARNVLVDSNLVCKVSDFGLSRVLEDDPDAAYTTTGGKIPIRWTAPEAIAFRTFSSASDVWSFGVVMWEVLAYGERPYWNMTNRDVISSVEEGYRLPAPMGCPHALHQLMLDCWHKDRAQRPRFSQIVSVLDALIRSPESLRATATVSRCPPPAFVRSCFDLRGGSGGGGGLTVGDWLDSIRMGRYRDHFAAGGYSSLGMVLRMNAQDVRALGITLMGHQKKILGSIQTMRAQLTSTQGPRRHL
Excerpt: as §1

[4] = target: T3, 320 wild-type protein kinases (Homo sapiens, UniProt Q9UEE5); conditions: kinase STK17A, singlicate
T3 sequence (Q9UEE5 1-414): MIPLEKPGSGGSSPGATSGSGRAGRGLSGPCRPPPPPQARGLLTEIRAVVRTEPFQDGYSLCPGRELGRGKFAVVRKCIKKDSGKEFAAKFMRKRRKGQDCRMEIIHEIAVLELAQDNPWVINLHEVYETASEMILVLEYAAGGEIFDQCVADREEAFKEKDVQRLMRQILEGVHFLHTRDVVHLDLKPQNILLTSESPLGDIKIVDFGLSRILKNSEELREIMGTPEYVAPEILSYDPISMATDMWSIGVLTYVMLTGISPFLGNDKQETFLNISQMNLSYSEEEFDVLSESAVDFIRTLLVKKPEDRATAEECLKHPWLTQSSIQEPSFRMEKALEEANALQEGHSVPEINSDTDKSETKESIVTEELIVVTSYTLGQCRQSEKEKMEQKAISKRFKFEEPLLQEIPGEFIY
Excerpt: as §1

[5] = target: 320 wild-type protein kinases (Homo sapiens, UniProt Q9BWU1); conditions: CDK19/CycC, singlicate
320 wild-type protein kinases (Homo sapiens, UniProt Q9BWU1), sequence (Q9BWU1 whole entry): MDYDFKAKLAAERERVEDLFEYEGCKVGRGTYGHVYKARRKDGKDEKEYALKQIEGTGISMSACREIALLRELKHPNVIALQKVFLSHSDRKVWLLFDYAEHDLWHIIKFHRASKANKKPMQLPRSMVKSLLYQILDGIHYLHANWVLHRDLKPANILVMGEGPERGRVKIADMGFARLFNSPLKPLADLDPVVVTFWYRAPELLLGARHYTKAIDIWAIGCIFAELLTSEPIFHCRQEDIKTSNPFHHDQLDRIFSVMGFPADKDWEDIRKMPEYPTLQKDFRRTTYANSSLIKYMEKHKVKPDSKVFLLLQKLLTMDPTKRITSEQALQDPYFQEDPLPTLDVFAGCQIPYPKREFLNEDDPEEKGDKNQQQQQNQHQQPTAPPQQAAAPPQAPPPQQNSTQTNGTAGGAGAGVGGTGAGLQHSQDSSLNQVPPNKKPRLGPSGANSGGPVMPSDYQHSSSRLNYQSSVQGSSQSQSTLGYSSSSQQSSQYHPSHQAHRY
Excerpt: as §1

[6] = target: 320 wild-type protein kinases (Homo sapiens, UniProt P51812); conditions: kinase RPS6KA3, singlicate
320 wild-type protein kinases (Homo sapiens, UniProt P51812), sequence (P51812 whole entry): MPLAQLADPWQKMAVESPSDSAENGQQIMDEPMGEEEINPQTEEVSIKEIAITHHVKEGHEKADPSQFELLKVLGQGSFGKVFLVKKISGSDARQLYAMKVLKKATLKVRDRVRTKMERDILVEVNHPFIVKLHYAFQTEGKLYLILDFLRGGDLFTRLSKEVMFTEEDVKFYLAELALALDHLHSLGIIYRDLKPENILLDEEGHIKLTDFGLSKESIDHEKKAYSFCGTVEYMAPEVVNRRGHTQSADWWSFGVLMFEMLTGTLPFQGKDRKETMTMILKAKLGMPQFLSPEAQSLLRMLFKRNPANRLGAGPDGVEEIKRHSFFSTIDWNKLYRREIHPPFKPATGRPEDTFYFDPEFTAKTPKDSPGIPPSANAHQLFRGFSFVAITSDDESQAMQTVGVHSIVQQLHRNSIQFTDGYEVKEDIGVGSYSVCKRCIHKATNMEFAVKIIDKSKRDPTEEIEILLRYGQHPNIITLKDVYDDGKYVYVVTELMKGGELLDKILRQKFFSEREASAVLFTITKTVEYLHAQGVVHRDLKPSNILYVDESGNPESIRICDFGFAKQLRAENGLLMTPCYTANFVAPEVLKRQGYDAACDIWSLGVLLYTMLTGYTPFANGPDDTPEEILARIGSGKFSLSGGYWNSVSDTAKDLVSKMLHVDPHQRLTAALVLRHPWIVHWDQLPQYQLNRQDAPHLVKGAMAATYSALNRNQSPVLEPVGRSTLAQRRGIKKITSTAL
Excerpt: as §1

[7] = target: 320 wild-type protein kinases (Homo sapiens, UniProt Q16644); conditions: singlicate
320 wild-type protein kinases (Homo sapiens, UniProt Q16644), sequence (Q16644 whole entry): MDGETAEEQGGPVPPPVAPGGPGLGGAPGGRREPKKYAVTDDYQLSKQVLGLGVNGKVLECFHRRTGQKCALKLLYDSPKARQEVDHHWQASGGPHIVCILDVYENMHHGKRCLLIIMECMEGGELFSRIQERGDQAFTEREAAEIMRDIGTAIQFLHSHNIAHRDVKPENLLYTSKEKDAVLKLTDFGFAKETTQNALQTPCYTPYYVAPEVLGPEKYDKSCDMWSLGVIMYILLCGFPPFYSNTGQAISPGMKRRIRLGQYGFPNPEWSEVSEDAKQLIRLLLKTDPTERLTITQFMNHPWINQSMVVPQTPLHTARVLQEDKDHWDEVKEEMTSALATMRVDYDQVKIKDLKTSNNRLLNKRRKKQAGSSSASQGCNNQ
Excerpt: as §1

[8] = target: 320 wild-type protein kinases (Homo sapiens, UniProt Q9Y5S2); conditions: CDC42BPB, singlicate
320 wild-type protein kinases (Homo sapiens, UniProt Q9Y5S2), sequence (Q9Y5S2 whole entry): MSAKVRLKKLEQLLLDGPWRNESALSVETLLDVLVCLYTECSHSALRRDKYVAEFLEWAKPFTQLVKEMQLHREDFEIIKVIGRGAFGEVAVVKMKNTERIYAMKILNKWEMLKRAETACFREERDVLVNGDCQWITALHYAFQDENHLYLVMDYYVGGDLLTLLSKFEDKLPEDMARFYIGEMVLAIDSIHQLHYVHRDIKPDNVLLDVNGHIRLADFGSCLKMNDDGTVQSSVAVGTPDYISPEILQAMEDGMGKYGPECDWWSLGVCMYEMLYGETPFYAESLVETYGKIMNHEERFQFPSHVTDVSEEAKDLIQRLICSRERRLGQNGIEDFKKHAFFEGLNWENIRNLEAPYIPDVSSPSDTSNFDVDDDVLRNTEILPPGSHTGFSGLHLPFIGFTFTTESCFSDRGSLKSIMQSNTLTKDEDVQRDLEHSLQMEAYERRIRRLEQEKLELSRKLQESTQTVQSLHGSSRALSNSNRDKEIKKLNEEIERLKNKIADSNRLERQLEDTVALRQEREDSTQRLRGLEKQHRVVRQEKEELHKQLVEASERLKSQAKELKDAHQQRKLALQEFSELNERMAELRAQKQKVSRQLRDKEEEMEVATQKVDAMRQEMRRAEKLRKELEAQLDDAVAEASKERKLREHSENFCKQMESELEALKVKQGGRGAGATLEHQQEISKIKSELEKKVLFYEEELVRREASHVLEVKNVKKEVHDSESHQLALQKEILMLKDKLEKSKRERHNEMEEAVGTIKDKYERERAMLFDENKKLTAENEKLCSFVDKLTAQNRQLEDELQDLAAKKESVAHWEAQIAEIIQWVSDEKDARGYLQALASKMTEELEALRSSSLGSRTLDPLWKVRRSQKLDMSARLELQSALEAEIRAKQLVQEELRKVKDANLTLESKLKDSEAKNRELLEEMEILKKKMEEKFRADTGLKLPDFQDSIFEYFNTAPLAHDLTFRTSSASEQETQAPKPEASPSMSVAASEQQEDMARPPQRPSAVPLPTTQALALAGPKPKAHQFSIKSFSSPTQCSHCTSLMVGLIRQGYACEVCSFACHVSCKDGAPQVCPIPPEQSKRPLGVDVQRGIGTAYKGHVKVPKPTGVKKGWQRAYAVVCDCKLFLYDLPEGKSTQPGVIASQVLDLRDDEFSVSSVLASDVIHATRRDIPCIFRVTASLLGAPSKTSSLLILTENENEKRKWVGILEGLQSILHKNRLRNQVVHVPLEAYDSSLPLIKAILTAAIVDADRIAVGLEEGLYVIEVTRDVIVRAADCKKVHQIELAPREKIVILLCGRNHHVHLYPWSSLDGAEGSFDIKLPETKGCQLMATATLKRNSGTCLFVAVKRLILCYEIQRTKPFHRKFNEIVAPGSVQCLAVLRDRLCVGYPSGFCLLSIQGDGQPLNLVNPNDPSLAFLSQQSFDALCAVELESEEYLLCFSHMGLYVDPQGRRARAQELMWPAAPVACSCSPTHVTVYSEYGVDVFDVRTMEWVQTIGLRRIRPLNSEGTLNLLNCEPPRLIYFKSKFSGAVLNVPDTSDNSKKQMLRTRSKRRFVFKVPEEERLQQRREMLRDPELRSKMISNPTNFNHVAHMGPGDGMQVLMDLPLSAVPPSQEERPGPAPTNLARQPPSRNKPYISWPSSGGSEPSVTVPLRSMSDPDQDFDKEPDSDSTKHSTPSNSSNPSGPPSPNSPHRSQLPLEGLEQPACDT
Excerpt: as §1

[9] = target: 320 wild-type protein kinases (Homo sapiens, UniProt P78527); conditions: DNA-PK, singlicate
Excerpt: as §1

[10] = target: 320 wild-type protein kinases (Homo sapiens, UniProt O75914); conditions: singlicate
320 wild-type protein kinases (Homo sapiens, UniProt O75914), sequence (O75914 whole entry): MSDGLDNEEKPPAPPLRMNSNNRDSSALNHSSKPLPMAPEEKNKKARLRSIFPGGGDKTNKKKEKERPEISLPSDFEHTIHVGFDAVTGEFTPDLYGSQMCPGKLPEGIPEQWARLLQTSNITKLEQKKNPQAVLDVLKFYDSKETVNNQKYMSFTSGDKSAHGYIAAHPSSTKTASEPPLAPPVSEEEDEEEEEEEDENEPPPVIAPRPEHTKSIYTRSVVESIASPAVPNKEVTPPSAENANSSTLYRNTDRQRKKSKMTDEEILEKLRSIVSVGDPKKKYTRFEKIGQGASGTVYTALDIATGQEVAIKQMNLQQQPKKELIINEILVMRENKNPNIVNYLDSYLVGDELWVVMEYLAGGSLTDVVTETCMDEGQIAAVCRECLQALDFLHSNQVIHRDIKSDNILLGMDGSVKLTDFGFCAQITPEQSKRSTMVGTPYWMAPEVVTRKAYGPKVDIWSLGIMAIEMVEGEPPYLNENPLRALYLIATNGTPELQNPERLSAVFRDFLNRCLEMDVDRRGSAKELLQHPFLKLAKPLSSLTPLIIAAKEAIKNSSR
Excerpt: as §1

320 wild-type protein kinases (Homo sapiens, UniProt P50613), sequence (P50613 whole entry): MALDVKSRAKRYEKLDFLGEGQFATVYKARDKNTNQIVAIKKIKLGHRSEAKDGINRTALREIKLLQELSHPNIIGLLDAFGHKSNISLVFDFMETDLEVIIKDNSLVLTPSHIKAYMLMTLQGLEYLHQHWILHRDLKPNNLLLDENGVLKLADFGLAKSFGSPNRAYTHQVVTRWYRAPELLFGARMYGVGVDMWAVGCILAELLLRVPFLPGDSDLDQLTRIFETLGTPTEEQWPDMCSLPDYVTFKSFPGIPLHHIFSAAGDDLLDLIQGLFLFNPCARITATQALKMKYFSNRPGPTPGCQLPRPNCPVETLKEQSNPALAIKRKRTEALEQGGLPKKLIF

Structure (SMILES) | Residual activity ([1]; CDK7/CycH/MAT1, 1.0E-06 M) | Residual activity ([1]; CDK7/CycH/MAT1, 1.0E-07 M) | Residual activity ([2]; BRSK2, 1.0E-06 M) | Residual activity ([2]; BRSK2, 1.0E-07 M) | Residual activity ([3]; EPHA8, 1.0E-06 M) | Residual activity ([3]; EPHA8, 1.0E-07 M) | Residual activity, STK17A ([4]; assay conc. 1.0E-06 M) | Residual activity, STK17A ([4]; assay conc. 1.0E-07 M) | Residual activity ([5]; 1.0E-06 M) | Residual activity ([5]; 1.0E-07 M) | Residual activity, RPS6KA3 ([6]; assay conc. 1.0E-06 M) | Residual activity, RPS6KA3 ([6]; assay conc. 1.0E-07 M) | Residual activity ([7]; MAPKAPK3, 1.0E-06 M) | Residual activity ([7]; MAPKAPK3, 1.0E-07 M) | Residual activity ([8]; 1.0E-06 M) | Residual activity ([8]; 1.0E-07 M) | Residual activity ([9]; 1.0E-06 M) | Residual activity ([9]; 1.0E-07 M) | Residual activity ([10]; PAK3, 1.0E-06 M) | Residual activity ([10]; PAK3, 1.0E-07 M)
C#Cc1cc(Nc2ncnc3cc(I)ccc23)ccc1Cl [Compound 41] | 81 % of control | 93 % of control | 100 % of control | 98 % of control | 118 % of control | 110 % of control | 103 % of control | 104 % of control | 93 % of control | 91 % of control | 96 % of control | 99 % of control | 86 % of control | 99 % of control | 98 % of control | 101 % of control | 100 % of control | 96 % of control | 75 % of control | 96 % of control
C#Cc1cc(Nc2ncnc3cc(OC)c(OC)cc23)ccc1Cl [Compound 45] | 79 % of control | 74 % of control | 101 % of control | 106 % of control | 103 % of control | 112 % of control | 83 % of control | 102 % of control | 97 % of control | 104 % of control | 115 % of control | 119 % of control | 87 % of control | – | 95 % of control | 98 % of control | 85 % of control | 108 % of control | 92 % of control | 98 % of control
